Converted amounts (≈) assume the structure as drawn. “And” between values parts separate entries of the source, which are not always exact repeats. Equal values may be shown once. Read-outs that look alike come from different tables or passages of the source.
How the values were obtained:
[1] = test system: A21978.6 (Streptomyces roseosporus NRRL 11379); test: Antibiotic sensitivity of producing culture (sensitivity discs); assay type: cell-based; parameters: key: + = sensitive (zones of inhibition); - = resistant (no zones of inhibition); settings: discs on seeded ISP #2 agar; erythromycin 15 μg, cephalothin 30 μg, lincomycin 2 μg, nystatin 100 units, polymyxin B 300 units, streptomycin 10 μg, tetracycline 30 μg, vancomycin 30 μg
Protocol: Temperature range, NaCl tolerance, pH range, and antibiotic sensitivity were done using ISP #2 agar medium. The range of temperatures were: 25°, 28°, 30°, 34°, 37°, 40°, 45°, 50° and 55° C. NaCl tolerance was measured by adding NaCl to the agar to equal: 0, 1, 2, 3, 4, 5, 6, 8, 10 and 12%. These were incubated at 30° C. The pH range was measured by adjusting the agar from pH 3.0 to 11.0 at increments of 1.0 pH units, just prior to pouring. Antibiotic sensitivity was determined using sensitivity discs padded onto seeded agar plates.

[2] = test system: S. roseosporus (ISP 5122; ATCC 23958); test: Antibiotic sensitivity of comparison culture (sensitivity discs); assay type: cell-based, Streptomyces roseosporus; parameters: key: + = sensitive (zones of inhibition); - = resistant (no zones of inhibition); settings: discs on seeded ISP #2 agar; erythromycin 15 μg, cephalothin 30 μg, lincomycin 2 μg, nystatin 100 units, polymyxin B 300 units, streptomycin 10 μg, tetracycline 30 μg, vancomycin 30 μg
Protocol: Temperature range, NaCl tolerance, pH range, and antibiotic sensitivity were done using ISP #2 agar medium. The range of temperatures were: 25°, 28°, 30°, 34°, 37°, 40°, 45°, 50° and 55° C. NaCl tolerance was measured by adding NaCl to the agar to equal: 0, 1, 2, 3, 4, 5, 6, 8, 10 and 12%. These were incubated at 30° C. The pH range was measured by adjusting the agar from pH 3.0 to 11.0 at increments of 1.0 pH units, just prior to pouring. Antibiotic sensitivity was determined using sensitivity discs padded onto seeded agar plates. Streptomyces roseosporus ISP 5122; ATCC 23958

Staphylococcus aureus [3] = test: MIC, agar dilution (Table XV); assay type: cell-based
From the text: (§1) ^1 MIC = minimum inhibitory concentration (μg/ml), agar dilution

Streptococcus pneumoniae [4] = test: MIC, agar dilution (Table XV); assay type: cell-based
From the text: as §1

Streptococcus pyogenes [5] = test: MIC, agar dilution (Table XV); assay type: cell-based
From the text: as §1

Staphylococcus aureus [6] = test: Experimental bacterial infection in mice, ED50; assay type: in vivo; settings: S. aureus infection, two doses, subcutaneous administration
Protocol: (§2) When two doses of test compound were administered to mice in illustrative infections, the activity observed as measured as an ED50 value [effective dose in mg/kg to protect fifty percent of the test animals: See Warren Wick, et al., J. Bacteriol, 81, 233-235 (1961)].

Streptococcus pneumoniae [7] = test: Experimental bacterial infection in mice, ED50; assay type: in vivo; settings: S. pneumoniae infection, two doses, subcutaneous administration
Protocol: as §2

Streptococcus pyogenes [8] = test: Experimental bacterial infection in mice, ED50; assay type: in vivo; settings: S. pyogenes infection, two doses
Protocol: as §2

[9] = test system: Staphylococcus aureus 3055; test: MIC, standard agar-dilution test (Table XI); assay type: cell-based; settings: aerobic, S. aureus 3055, sodium salt form
[10] = test system: Group D Streptococcus 282; test: MIC, standard agar-dilution test (Table XI); assay type: cell-based; settings: aerobic, sodium salt form
[11] = test system: Streptococcus pyogenes C203; test: MIC, standard agar-dilution test (Table XI); assay type: cell-based; settings: aerobic, S. pyogenes C203, sodium salt form
[12] = test system: Streptococcus pneumoniae Park I; test: MIC, standard agar-dilution test (Table XI); assay type: cell-based; settings: aerobic, S. pneumoniae Park I, sodium salt form
[13] = test system: Viridans Streptococcus 9943; test: MIC, standard agar-dilution test (Table XI); assay type: cell-based; settings: aerobic, sodium salt form
[14] = test system: Neisseria gonorrhoeae 111076-4; test: MIC, standard agar-dilution test (Table XI); assay type: cell-based; settings: aerobic, N. gonorrhoeae 111076-4, sodium salt form
[15] = test system: Staphylococcus aureus 3055; test: MIC, standard broth-dilution test (Table XII); assay type: cell-based; settings: aerobic, S. aureus 3055
[16] = test system: Group D Streptococcus 282; test: MIC, standard broth-dilution test (Table XII); assay type: cell-based; settings: aerobic
[17] = test system: Streptococcus pyogenes C203; test: MIC, standard broth-dilution test (Table XII); assay type: cell-based; settings: aerobic, S. pyogenes C203
[18] = test system: Streptococcus pneumoniae Park I; test: MIC, standard broth-dilution test (Table XII); assay type: cell-based; settings: aerobic, S. pneumoniae Park I
[19] = test system: Viridans Streptococcus 9943; test: MIC, standard broth-dilution test (Table XII); assay type: cell-based; settings: aerobic
Staphylococcus aureus [20] = test: MIC against clinical isolates, ICS agar-dilution (Table XIII); assay type: cell-based; settings: 10 clinical isolates, bracket = number of isolates with this MIC or range
Actinomyces israelii = test: MIC against anaerobic bacteria, standard agar-dilution (Table XIV); assay type: cell-based; settings: anaerobe
Clostridium septicum = test: as above; assay type: cell-based; settings: anaerobe
Eubacterium aerofaciens = test: as above; assay type: cell-based; settings: anaerobe
[21] = test system: Peptococcus asaccharolyticus; test: as above; assay type: cell-based; settings: anaerobe
Peptococcus prevoti = test: as above; assay type: cell-based; settings: anaerobe
[22] = test system: Peptostreptococcus anaerobius; test: as above; assay type: cell-based; settings: anaerobe
[23] = test system: Peptostreptococcus intermedius; test: as above; assay type: cell-based; settings: anaerobe
Propionibacterium acnes = test: as above; assay type: cell-based; settings: anaerobe
Bacteroides fragilis = test: as above; assay type: cell-based; settings: anaerobe
Fusobacterium symbiosum = test: as above; assay type: cell-based; settings: anaerobe
[24] = test system: Fusobacterium necrophorum; test: as above; assay type: cell-based; settings: anaerobe
[25] = test system: Streptococcus faecalis (Guze); test: In vitro susceptibility (MIC) of the S. faecalis Guze strain; assay type: cell-based
From the text: ^1 In vitro susceptibility of the S. faecalis Guze strain

[26] = Electrometric titration in 66% aqueous dimethylformamide; assay type: physicochemical; settings: 66% DMF, Na salt forms; factors: two determinations
Clostridium perfringens = settings: anaerobe, agar-dilution
[27] = Mouse
[28] = Rat, IV
Micrococcus luteus = test: Paper-disc agar-diffusion bioassay; settings: individual factors, Na salts
[29] = test system: Streptococcus faecalis (Guze); test: Streptococcus faecalis descending rat pyelonephritis test; settings: for Percent of Rats Cured: cure = kidney counts less than 10^2 per g; for Percent of Rats with a 4-Log Titer Decrease: once daily, kidney titer vs infected controls

Compound: CC(=O)OCC1=C(C(=O)O)N2C(=O)[C@@H](NC(=O)Cc3cccs3)[C@H]2SC1 [Cephalothin]
- Antibiotic Sensitivity, A21978.6 [1]: +
- Antibiotic Sensitivity, S. roseosporus [2]: +

Compound: CC[C@H]1OC(=O)[C@H](C)[C@@H](O[C@H]2C[C@@](C)(OC)[C@@H](O)[C@H](C)O2)[C@H](C)[C@@H](O[C@@H]2O[C@H](C)C[C@H](N(C)C)[C@H]2O)[C@](C)(O)C[C@@H](C)C(=O)[C@H](C)[C@@H](O)[C@]1(C)O [Erythromycin, reference compound]
- MIC (Staphylococcus aureus [3]; read-out: MIC): 0.13 µg/mL (≈ 0.177 µM)
- MIC (Streptococcus pneumoniae [4]; read-out: MIC): 0.5 µg/mL (≈ 0.681 µM)
- MIC (Streptococcus pyogenes [5]; read-out: MIC): 0.13 µg/mL (≈ 0.177 µM)
- ED50 (Staphylococcus aureus [6]; Staphylococcus aureus, sc, read-out: ED50): 0.5 mg/kg
- ED50 (Streptococcus pneumoniae [7]; Streptococcus pneumoniae, sc, read-out: ED50): 7.3 mg/kg
- ED50 (Streptococcus pyogenes [8]; Streptococcus pyogenes, sc, subcutaneous administration, read-out: ED50): 0.64 mg/kg
- Antibiotic Sensitivity, A21978.6 [1]: +
- Antibiotic Sensitivity, S. roseosporus [2]: +

Compound: CC(C)CCCCCCCCC(=O)NC(Cc1c[nH]c2ccccc12)C(=O)NC(CC(N)=O)C(=O)NC(CC(=O)O)C(=O)NC1C(=O)NCC(=O)NC(CCCN)C(=O)NC(CC(=O)O)C(=O)NC(C)C(=O)NC(CC(=O)O)C(=O)NCC(=O)NC(CO)C(=O)NC(C(C)CC(=O)O)C(=O)NC(CC(=O)c2ccccc2N)C(=O)OC1C (stereo not shown) [Factor C2]
- MIC [9]: 0.13 µg/mL
- MIC [10]: 0.25 µg/mL
- MIC [11]: 0.13 µg/mL
- MIC [12]: 0.25 µg/mL
- MIC [13]: 1.0 µg/mL
- MIC [14]: 4.0 µg/mL
- MIC [15]: 0.5 µg/mL (≈ 0.303 µM)
- MIC [16]: 1.0 µg/mL (≈ 0.607 µM)
- MIC [17]: 0.25 µg/mL (≈ 0.152 µM)
- MIC [18]: 1.0 µg/mL (≈ 0.607 µM)
- MIC [19]: 16.0 µg/mL (≈ 9.7 µM)
- Minimum Inhibitory Concentration (Staphylococcus aureus [20]): 0.12 to 0.25 µg/mL
- MIC (Actinomyces israelii): 1.0 µg/mL (≈ 0.607 µM)
- MIC (Clostridium septicum): 1.0 µg/mL (≈ 0.607 µM)
- MIC (Eubacterium aerofaciens): 8 µg/mL (≈ 4.85 µM)
- MIC [21]: 2 µg/mL (≈ 1.21 µM)
- MIC (Peptococcus prevoti): 1.0 µg/mL (≈ 0.607 µM)
- MIC [22]: 1.0 µg/mL (≈ 0.607 µM)
- MIC [23]: 1.0 µg/mL (≈ 0.607 µM)
- MIC (Propionibacterium acnes): 2 µg/mL (≈ 1.21 µM)
- MIC (Bacteroides fragilis): > 128 µg/mL
- MIC (Fusobacterium symbiosum): > 128 µg/mL
- MIC [24]: 64 µg/mL (≈ 38.8 µM)
- MIC (Staphylococcus aureus [3]): 0.13 µg/mL (≈ 0.0788 µM)
- MIC (Streptococcus pneumoniae [4]): 0.13 µg/mL (≈ 0.0788 µM)
- MIC (Streptococcus pyogenes [5]): 0.13 µg/mL (≈ 0.0788 µM)
- ED50 (Staphylococcus aureus [6]): 0.16 mg/kg
- ED50 (Streptococcus pneumoniae [7]): 0.14 mg/kg
- ED50 (Streptococcus pyogenes [8]; oral administration): 59 mg/kg
- ED50 (Streptococcus pyogenes [8]; subcutaneous administration): 0.032 mg/kg
- MIC [25]: 0.25 µg/mL (≈ 0.152 µM)
- pKa Values (first group) [26]: 5.8 and 5.93
- pKa Values (second group) [26]: 7.6 and 7.63
- MIC (Clostridium perfringens): 8 µg/mL (≈ 4.85 µM)
- LD50 ([27]; IV): 150 to 250 mg/kg
- LD50 ([27]; SC): 175 mg/kg
- LD50 [28]: 204 ± 17 mg/kg
- Bioassay (Micrococcus luteus) (Micrococcus luteus): 1390 units/mg
- Percent of Rats Cured ([29]; 1.0 mg/kg x 7 subcutaneous): 89
- Percent of Rats with a 4-Log Titer Decrease ([29]; 1.0 mg/kg x 7 subcutaneous): 100

Compound: CCC[C@@H]1C[C@@H](C(=O)N[C@@H]([C@H]2O[C@H](SC)[C@H](O)[C@@H](O)[C@H]2O)[C@@H](C)O)N(C)C1 [Lincomycin]
- Antibiotic Sensitivity, A21978.6 [1]: -
- Antibiotic Sensitivity, S. roseosporus [2]: -

Compound: C[C@@H]1[C@H](O)[C@@H](C)/C=C/C=C/CC/C=C/C=C/C=C/C=C/C(O[C@H]2O[C@H](C)[C@@H](O)[C@H](N)[C@@H]2O)CC2O[C@](O)(CC(O)C(O)CCC(O)CC(O)CC(O)CC(=O)O[C@H]1C)CC(O)C2C(=O)O (stereo partly shown) [Nystatin]
- Antibiotic Sensitivity, A21978.6 [1]: -
- Antibiotic Sensitivity, S. roseosporus [2]: -

Compound: [H]/N=C(/N)N[C@H]1[C@H](O)[C@@H](O)[C@H](O[C@@H]2O[C@@H](C)[C@](O)(C=O)[C@H]2O[C@@H]2O[C@@H](CO)[C@H](O)[C@@H](O)[C@@H]2NC)[C@@H](N/C(N)=N\[H])[C@@H]1O [Streptomycin]
- Antibiotic Sensitivity, A21978.6 [1]: +
- Antibiotic Sensitivity, S. roseosporus [2]: +

Compound: CN(C)[C@@H]1C(O)=C(C(N)=O)C(=O)[C@@]2(O)C(O)=C3C(=O)c4c(O)cccc4[C@@](C)(O)[C@H]3C[C@@H]12 [Tetracycline]
- Antibiotic Sensitivity, A21978.6 [1]: +
- Antibiotic Sensitivity, S. roseosporus [2]: +

Compound: CN[C@H](CC(C)C)C(=O)N[C@H]1C(=O)N[C@@H](CC(N)=O)C(=O)N[C@H]2C(=O)N[C@H]3C(=O)N[C@H](C(=O)N[C@H](C(=O)O)c4cc(O)cc(O)c4-c4cc3ccc4O)[C@H](O)c3ccc(c(Cl)c3)Oc3cc2cc(c3O[C@@H]2O[C@H](CO)[C@@H](O)[C@H](O)[C@H]2O[C@H]2C[C@](C)(N)[C@H](O)[C@H](C)O2)Oc2ccc(cc2Cl)[C@H]1O [Vancomycin, reference compound]
- Antibiotic Sensitivity, A21978.6 [1]: +
- Antibiotic Sensitivity, S. roseosporus [2]: +
- Percent of Rats Cured ([29]; 12.0 mg/kg x 7 subcutaneous): 33
- Percent of Rats with a 4-Log Titer Decrease ([29]; 12.0 mg/kg x 7 subcutaneous): 55

Compound: Polymyxin B
- Antibiotic Sensitivity, A21978.6 [1]: +
- Antibiotic Sensitivity, S. roseosporus [2]: -

— USRE32333E, “A-21978 Antibiotics and process for their production” (priority 1985, dated 1987)
